This note sets out measurements from ChEMBL document CHEMBL2203118, “Ethyl 2,4,6-trihydroxybenzoate is an agonistic ligand for liver X receptor that induces cholesterol efflux from macrophages without affecting lipid accumulation in HepG2 cells” (Bioorg Med Chem Lett, 2012).

Structures are written as SMILES. Calls of active or inactive are those of the source. No cut-off for these calls is given here.

The test system of data set [1] is HepG2. Description: Upregulation of SREBP-1 gene expression in human HepG2 cells at 1 uM by immunoblot analysis. Particulars: hepg2, 1 µM. In kind it is ADME, cell-based. A general note: In western blotting, separated proteins are transferred to a membrane and probed.
Data set [2] has as its system HepG2. Kind of data set: Upregulation of SCD1 gene expression in human HepG2 cells at 1 uM by qPCR analysis. In kind it is ADME, cell-based. As to conditions: hepg2, 1 µM.
Data set [3] concerns HepG2. Kind of data set: Upregulation of FAS gene expression in human HepG2 cells at 1 uM by qPCR analysis. In kind it is ADME, cell-based. As to conditions: hepg2, 1 µM.
Data set [4] has as its system HepG2. Kind of data set: Upregulation of SREBP-1 gene expression in human HepG2 cells at 1 uM by qPCR analysis. In kind it is ADME, cell-based. Particulars: hepg2, 1 µM. For orientation: Quantitative PCR measures a nucleic acid by following its amplification.
Data set [5] deals with HepG2. Kind of data set: Induction of lipid accumulation in human HepG2 cells assessed as increase in cellular triglyceride level at 1 uM by Oil Red O staining relative to control. In kind it is cell-based. Particulars: hepg2, 1 µM.
Data set [6] relates to HepG2. Description: Induction of lipid accumulation in human HepG2 cells assessed as cellular triglyceride concentration at 1 uM. In kind it is cell-based. Particulars: hepg2, 1 µM.
Data set [7] concerns the target T1, Peroxisome proliferator-activated receptor alpha (Homo sapiens) (UniProt Q07869).
T1 sequence (whole entry): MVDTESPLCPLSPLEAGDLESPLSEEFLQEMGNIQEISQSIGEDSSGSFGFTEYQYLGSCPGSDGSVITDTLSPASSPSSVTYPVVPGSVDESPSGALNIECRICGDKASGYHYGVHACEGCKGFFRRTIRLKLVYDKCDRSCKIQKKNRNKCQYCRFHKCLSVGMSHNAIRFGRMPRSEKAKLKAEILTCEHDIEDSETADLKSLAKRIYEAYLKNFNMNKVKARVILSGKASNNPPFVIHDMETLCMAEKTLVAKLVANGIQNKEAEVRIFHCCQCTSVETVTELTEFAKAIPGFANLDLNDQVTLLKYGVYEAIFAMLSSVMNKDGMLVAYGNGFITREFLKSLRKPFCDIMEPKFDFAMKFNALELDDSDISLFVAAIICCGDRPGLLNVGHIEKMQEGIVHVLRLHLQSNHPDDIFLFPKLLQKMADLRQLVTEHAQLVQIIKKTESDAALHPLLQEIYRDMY
Description: Transactivation of PPAR-alpha transfected in HEK293 cells at 10 uM after 24 hrs by luciferase reporter gene assay. In kind it is cell-based. (In general: A reporter such as luciferase makes a cellular process visible.)

For the compound `O=S(=O)(c1ccccc1)N(CC(F)(F)F)c1ccc(C(O)(C(F)(F)F)C(F)(F)F)cc1` [T091317], the Activity entry in data set [1], in data set [2], in data set [3], in data set [4], in data set [5] and in data set [6] was “Toxic” throughout.

`CC(C)(Oc1ccc(C(=O)c2ccc(Cl)cc2)cc1)C(=O)O`: the result in data set [7] was Active.
